Experimental data as given in ChEMBL document CHEMBL6153021, “Structure Optimization of c-Jun N-terminal Kinase 1 Inhibitors for Treating Idiopathic Pulmonary Fibrosis” (J Med Chem, 2024).
Activity calls are given as the source filed them. The calls are words filed in the database; no cut-off is given here.

How the values were obtained:
[1] = MRT (0 to infinity) in Sprague-Dawley rat at 10 mg/kg, ip by HPLC-UV analysis; type: ADME, organism-based; conditions: in vivo
[2] = Half-life in Sprague-Dawley rat at 10 mg/kg, ip by HPLC-UV analysis; type: ADME, organism-based; conditions: in vivo
[3] = MRT (0 to infinity) in Sprague-Dawley rat at 5 mg/kg, iv by HPLC-UV analysis; type: ADME, organism-based; conditions: in vivo
[4] = Cmax in Sprague-Dawley rat at 5 mg/kg, iv by HPLC-UV analysis; type: ADME, organism-based; conditions: in vivo
[5] = test system: A549; assay: Inhibition of TGF-beta1-induced epithelial-to-mesenchymal transition in human A549 cells assessed as reduction in alpha-SMA expression at 0.3 uM incubated for 1 hr followed by TGF-beta1 stimulation for 48 hrs by western blot analysis; type: functional, cell-based; conditions: time 49.0 hrs
[6] = Tmax in Sprague-Dawley rat at 10 mg/kg, ip by HPLC-UV analysis; type: ADME, organism-based; conditions: in vivo
[7] = target: Mitogen-activated protein kinase 1 (Homo sapiens) (UniProt P28482); assay: Inhibition of Erk2 (unknown origin) at 0.1 uM preincubated for 10 mins followed by substrate and ATP addition and measured after 60 mins by ADP-Glo reagent based luminescence analysis; conditions: time 70.0 min
[8] = target: T1, Dual specificity mitogen-activated protein kinase kinase 7 (Homo sapiens) (UniProt O14733); assay: Inhibition of MAP2K7 (unknown origin) at 0.1 uM preincubated for 10 mins followed by substrate and ATP addition and measured after 60 mins by ADP-Glo reagent based luminescence analysis; conditions: time 70.0 min
T1 sequence (whole entry): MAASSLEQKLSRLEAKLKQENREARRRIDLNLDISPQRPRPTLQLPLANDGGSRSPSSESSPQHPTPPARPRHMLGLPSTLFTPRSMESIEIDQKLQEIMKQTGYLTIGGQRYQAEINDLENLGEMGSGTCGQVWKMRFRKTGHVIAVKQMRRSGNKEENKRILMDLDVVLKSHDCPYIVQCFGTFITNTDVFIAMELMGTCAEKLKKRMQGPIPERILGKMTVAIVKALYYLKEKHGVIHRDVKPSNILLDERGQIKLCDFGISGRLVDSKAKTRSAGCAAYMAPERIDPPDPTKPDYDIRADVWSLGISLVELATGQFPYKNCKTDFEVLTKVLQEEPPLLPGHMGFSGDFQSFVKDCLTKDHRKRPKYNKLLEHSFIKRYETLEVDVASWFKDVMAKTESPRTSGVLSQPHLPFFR

[9] = test system: Mus musculus; assay: In vivo inhibition of JNK1 in bleomycin-induced idiopathic pulmonary fibrosis C57BL/6 mouse model assessed as reduction in c-Jun phosphorylation in lungs at 3 to 10 mg/kg, ip bid for 3 weeks by immunohistochemical staining analysis; type: functional, organism-based; conditions: dose 3-10 mg/kg
[10] = Volume of distribution in Sprague-Dawley rat at 5 mg/kg, iv by HPLC-UV analysis; type: ADME, organism-based; conditions: in vivo
[11] = target: T2, Dual specificity mitogen-activated protein kinase kinase 4 (Homo sapiens) (UniProt P45985); assay: Inhibition of MAP2K4 (unknown origin) at 0.1 uM preincubated for 10 mins followed by substrate and ATP addition and measured after 60 mins by ADP-Glo reagent based luminescence analysis; conditions: time 70.0 min
T2 sequence (whole entry): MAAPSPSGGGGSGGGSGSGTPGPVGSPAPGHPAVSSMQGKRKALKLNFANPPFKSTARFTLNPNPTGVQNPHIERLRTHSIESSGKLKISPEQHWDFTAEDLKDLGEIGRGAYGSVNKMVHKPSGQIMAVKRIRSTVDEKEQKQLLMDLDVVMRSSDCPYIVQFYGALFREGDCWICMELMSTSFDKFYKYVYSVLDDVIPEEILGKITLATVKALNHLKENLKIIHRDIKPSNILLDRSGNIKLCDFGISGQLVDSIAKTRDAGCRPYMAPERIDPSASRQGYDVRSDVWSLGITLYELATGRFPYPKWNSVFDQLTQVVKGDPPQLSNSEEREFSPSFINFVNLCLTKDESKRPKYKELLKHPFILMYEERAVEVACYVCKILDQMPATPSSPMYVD

[12] = test system: A549; assay: Inhibition of TGF-beta1-induced epithelial-to-mesenchymal transition in human A549 cells assessed as reduction in fibronectin expression at 0.3 uM incubated for 1 hr followed by TGF-beta1 stimulation for 48 hrs by western blot analysis; type: functional, cell-based; conditions: time 49.0 hrs
[13] = target: T3, Mitogen-activated protein kinase 8 (Homo sapiens, UniProt P45983); assay: Inhibition of JNK1 in human NCI-H1299 cells assessed as decrease in anisomycin-stimulated c-Jun phosphorylation incubated for 1 hr followed by incubation with anisomycin for 1 hr by western blot analysis; type: cell-based; conditions: dose 0.1-3 µM, time 2.0 hrs
[14] = target: Mitogen-activated protein kinase 8 (Mus musculus) (UniProt Q91Y86); assay: Inhibition of JNK1 in mouse NIH3T3 cells assessed as decrease in anisomycin-stimulated c-Jun phosphorylation incubated for 1 hr followed by incubation with anisomycin for 1 hr by western blot analysis; conditions: dose 0.1-3 µM, time 2.0 hrs
[15] = test system: Mus musculus; assay: Antifibrotic activity against bleomycin-induced idiopathic pulmonary fibrosis C57BL/6 mouse model assessed as restoration of pulmonary respiratory function by measuring increase in expiratory volume at 3 to 10 mg/kg, ip bid for 3 weeks by spirometry analysis; type: functional, organism-based; conditions: dose 3-10 mg/kg
[16] = target: T3, Mitogen-activated protein kinase 8; assay: Inhibition of JNK1 in human BEAS-2B cells assessed as decrease inbanisomycin-stimulated c-Jun phosphorylation at 0.3 uM incubated for 1 hr followed by incubation with anisomycin for 1 hr by western blot analysis; type: cell-based; conditions: time 2.0 hrs
[17] = test system: Mus musculus; assay: Antifibrotic activity against bleomycin-induced idiopathic pulmonary fibrosis C57BL/6 mouse model assessed as restoration of pulmonary respiratory function by measuring increase in minute volume at 3 to 10 mg/kg, ip bid for 3 weeks by spirometry analysis; type: functional, organism-based; conditions: dose 3-10 mg/kg
[18] = Cmax in Sprague-Dawley rat at 10 mg/kg, ip by HPLC-UV analysis; type: ADME, organism-based; conditions: in vivo

T3 sequence (P45983 whole entry): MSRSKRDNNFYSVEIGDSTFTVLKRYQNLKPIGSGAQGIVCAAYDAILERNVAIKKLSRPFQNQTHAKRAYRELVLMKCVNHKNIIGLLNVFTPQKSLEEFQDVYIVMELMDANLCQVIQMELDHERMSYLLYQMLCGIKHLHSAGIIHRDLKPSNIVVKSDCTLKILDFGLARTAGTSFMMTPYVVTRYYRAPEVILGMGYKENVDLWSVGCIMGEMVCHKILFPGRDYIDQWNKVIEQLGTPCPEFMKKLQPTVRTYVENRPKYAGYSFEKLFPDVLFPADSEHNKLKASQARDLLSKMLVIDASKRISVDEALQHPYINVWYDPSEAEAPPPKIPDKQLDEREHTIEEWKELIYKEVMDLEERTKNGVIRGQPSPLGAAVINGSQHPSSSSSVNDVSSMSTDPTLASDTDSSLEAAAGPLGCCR
Chain of Mitogen-activated protein kinase 8 (Mus musculus) (Q91Y86 whole entry, looked up): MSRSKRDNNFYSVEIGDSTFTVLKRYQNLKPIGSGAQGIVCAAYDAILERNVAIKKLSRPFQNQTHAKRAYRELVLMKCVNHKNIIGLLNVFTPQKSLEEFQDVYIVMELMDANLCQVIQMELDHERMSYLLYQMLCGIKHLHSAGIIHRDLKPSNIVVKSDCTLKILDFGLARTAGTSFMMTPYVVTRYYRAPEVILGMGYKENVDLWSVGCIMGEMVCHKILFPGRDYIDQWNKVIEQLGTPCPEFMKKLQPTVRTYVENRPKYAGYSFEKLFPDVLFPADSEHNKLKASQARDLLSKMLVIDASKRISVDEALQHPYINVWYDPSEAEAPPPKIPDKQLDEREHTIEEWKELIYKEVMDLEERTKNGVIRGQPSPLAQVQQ
Chain of Mitogen-activated protein kinase 1 (Homo sapiens) (P28482 whole entry): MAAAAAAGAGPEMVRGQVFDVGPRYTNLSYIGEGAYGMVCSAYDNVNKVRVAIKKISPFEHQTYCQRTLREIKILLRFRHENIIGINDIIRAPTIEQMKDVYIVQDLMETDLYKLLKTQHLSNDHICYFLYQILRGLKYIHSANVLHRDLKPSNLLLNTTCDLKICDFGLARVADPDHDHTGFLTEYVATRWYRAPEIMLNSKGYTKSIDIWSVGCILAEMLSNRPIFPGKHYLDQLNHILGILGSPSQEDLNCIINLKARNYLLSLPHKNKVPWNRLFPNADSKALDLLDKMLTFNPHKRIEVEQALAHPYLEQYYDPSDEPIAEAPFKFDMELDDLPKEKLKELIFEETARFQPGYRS

- MRT inf [1]: 16.5 h
- t1/2 [2]: 5.47 h
- MRT inf [3]: 12.6 h
- Cmax [4]: 1810 ng/mL
- Tmax [6]: 8.4 min
- inhibition [7]: 34.6%
- inhibition [8]: 23.6%
- Vd [10]: 0.93 L/kg
- inhibition [11]: 91.5%
- inhibition [13]: Dose-dependent-effect
- inhibition [14]: Dose-dependent-effect
- inhibition [16]: Active
- Cmax [18]: 982 ng/mL
Compound: COc1ccc(Nc2ncc(Br)c(Nc3ccc(OCCN(C)C)cc3C(N)=O)n2)cc1
- inhibition [5]: Active
- inhibition [9]: Active
- inhibition [12]: Active
- Activity [15]: Active
- Activity [17]: Active
